Source: patent US5599825A, “Water-soluble methine compound and pharmaceutical composition for treatment of cancer comprising the same” (Fuji Photo Film Co., Ltd., priority 1994, dated 1997)

Experiments:
[1] = Solubility test 1: 5 mg in 5 ml ion-exchanged water, macroscopic (1 mg/ml); type: physicochemical; conditions: room temperature; for Solubility 1 mg/mL: 5 minutes shaking; for dissolution in the above-described solubility tests: summary in words
Procedure: (§1) The solubility tests were conducted by the following methods of tests 1 and 2:
5 mg of a methine compound is fed into a test tube, to which 5 ml of ion-exchanged water is added, the resultant mixture is shaken at room temperature for 5 minutes, and the solubility thereof is macroscopically confirmed (1 mg/ml solution).

[2] = test system: human colonic epithelial carcinoma LS174T; test: Activity against human colonic epithelial carcinoma LS174T in nude mouse (tumor inhibition); type: in vivo, human (transplanted in BALB/C nu/nu mice); conditions: i.v.
Procedure: Activity of the present pharmaceutical compositions against human colonic epithelial carcinoma LS174T was determined by use of nude mouse as follows:
As the human colonic epithelial carcinoma cell lines LS174T, there was used the established line by trypsinizing piece of LS174T obtained from the operating theatre of the original adenocarcinoma of colon in such that the piece becomes suitable for cultivation. When this cultured cells LS174T are hypodermically injected to a nude mouse, the cells can be easily grown in the body of the nude mouse as a moderately to sufficiently differentiated human colonic epithelial carcinoma. The cells LS174T produce CEA in high level and can proliferate in hamster cheek pouches or immunodeprived mice, so that it has been proven that the cells LS174T have neoplastic properties.
BALB/C nu/nu mice (male, five weeks age) available from Charles River Japan Inc. were placed in an atmosphere having no pathogen. Tumors formed by the hypodermic injection of human colonic epithelial carcinoma cell lines LS174T into the mice were cut off under the aseptic condition, and the surrounding skin and connective tissue of the tumor tissues as well as the necrotic tissue located in the center of the tumor tissues were removed. The tumor tissues were Cut in the form of 3-5 mm square, and the resulting one tissue was charged into a needle for transplantation to hypodermically transplant it into the mouse. The resulting mice were randomly divided into control group (six mice) and treating group (six mice). The intravenous administration of the pharmaceutical composition into the treating group started next day. The amount and schedule of the administration were determined based on the experience, mainly the knowledge from the pretoxic-test data of LD 50 and LD 10.5% glucose solution or physiologic saline for injection was injected to the control group in the same amount as that to be intravenously injected to the treating group.
The pharmaceutical composition was dissolved in 5% glucose solution or physiologic saline for injection in such that the amount of the pharmaceutical composition contained in the glucose solution or physiologic saline is 5 ml per one kg of weight of the mouse to be injected so as to prepare an injection liquid. When the proliferation of tumor in the control group reached exponential growth phase and the size of the tumor became detectable by touch with hand, i.e., generally three weeks after the transplantation, the experiment was stopped. Then the tumor of each mouse was cut off and the weight of the resulting tumor was measured by use of chemical balance. Regarding each group, tumor inhibition percentage between the treating group and control group was calculated.

[3] = test system: LOX, a human melanoma cell line; test: Nude mice bearing human melanoma LOX (survival); type: in vivo, human (in male athymic Swiss nu/nu mouse); conditions: i.p.
Procedure: Nude Mice Bearing Human Melanoma as a Model System
LOX, a human melanoma cell line, grown subcutaneously in nude mice was excised, trypsinized to yield a single cell suspension using a metal grid with a […]. Red blood cells were lysed by incubation with 0.17 molar ammonium chloride at 4° C. for 20 minutes. Five million viable trypan blue negative cells made up in 0.1 ml of Dulbecco modified Eagles' medium (DME) were injected into the peritoneal cavity of a male athymic Swiss nu/nu mouse. The control group and each treatment group consisted of 5 to 10 mice. Treatment was commenced the following day by intraperitoneal injection.
Ten control mice received 0.25 ml of 2% dextrose on those days the treated groups were injected with the compounds of this invention. The compounds of the General Formulas (I) to (II) used in this invention which were tested are listed in Table 6 below and the results obtained are shown in Table 6 of the accompanying drawings. T/C is the ratio, expressed as a percentage of the mean survival age of the treated group to the mean survival age of the untreated control group.

[4] = Solubility test 2: 5 mg in 0.5 ml ion-exchanged water, macroscopic (10 mg/ml); type: physicochemical; conditions: room temperature, 5 minutes shaking
Procedure: as §1
5 mg of a methine compound is fed into a test tube, to which 0.5 ml of ion-exchanged water is added, the resultant mixture is shaken at room temperature for 5 minutes, and the solubility thereof is macroscopically confirmed (10 mg/ml solution).

[5] = Solubility in 5% glucose solution for injection, macroscopic (10 mg/ml); type: physicochemical; conditions: room temperature, 5 minutes shaking
Procedure: The solubility of each of the compounds of the present invention synthesized in Example 1 in 5% glucose solution for injection was examined.
5 mg of a methine compound was fed into a test tube, to which 0.5 ml of 5% glucose solution for injection was added, the resultant mixture was shaken at room temperature for 5 minutes, and the solubility thereof was macroscopically confirmed (10 mg/ml solution).

Structure (SMILES): CCn1c(=Cc2sc3ccccc3[n+]2CCOCCOCCOC)sc(=C2Sc3ccc4ccccc4c3N2C)c1=O [Compound 1-3]
- Solubility 1 mg/mL [1]: soluble
- Tumor Inhibition Ratio ([2]; 5 mg/kg day 1, 10 mg/kg days 3, 7, 13 mg/kg days 9, 13, 15, 17): 51.1%
- T/C (mean survival age of treated group to untreated control group) ([3]; 7.5 mg/kg days 1, 2, 5, 7, 9, 13, 15, 20): 153%
- Solubility 10 mg/mL [4]: soluble
- Solubility 10 mg/mL [5]: soluble

Structure (SMILES): CCn1c(=Cc2sc3ccccc3[n+]2CCOCCOCCOCCOC)sc(=C2Sc3ccc4ccccc4c3N2C)c1=O [Compound 1-4]
- Solubility 1 mg/mL [1]: soluble
- Tumor Inhibition Ratio ([2]; 5 mg/kg days 1, 3, 7.5 mg/kg day 6, 10 mg/kg days 8, 10, 12.5 mg/kg days 13, 15, 17): 71.5%
- Solubility 10 mg/mL [4]: soluble
- Solubility 10 mg/mL [5]: soluble

Structure (SMILES): CCn1c(=Cc2sc3c4ccccc4ccc3[n+]2CCOCCOCCOC)sc(=C2Sc3ccc4ccccc4c3N2C)c1=O [Compound 1-5]
- Solubility 1 mg/mL [1]: soluble
- Solubility 10 mg/mL [4]: suspension

Structure (SMILES): CCn1c(=Cc2sc3ccccc3[n+]2CC)sc(=C2Sc3c(ccc4ccccc34)N2CCOCCOCCOC)c1=O [Compound 1-6, 3-ethyl-2-{[3-ethyl-5-(3-methoxyethoxyethoxyethylnaphtho[2,1-d]thiazolin-2-ylidene)]-4-oxothiazolidin-2-ylidenemethyl}benzothiazolium=chloride]
- Solubility 1 mg/mL [1]: soluble
- Solubility 10 mg/mL [4]: soluble

Structure (SMILES): CC[n+]1c(C=c2sc(=C3Sc4c(ccc5ccccc45)N3C)c(=O)n2CCOCCOCCOC)sc2ccccc21 [Compound 1-7, 3-ethyl-2-{[3-methoxyethoxyethoxyethyl-5-(3-methylnaphtho[2,1-d]thiazolin-2-ylidene)]-4-oxothiazolidin-2-ylidenemethyl}benzothiazolium=chloride]
- Solubility 1 mg/mL [1]: soluble
- Tumor Inhibition Ratio ([2]; 5 mg/kg days 1, 17, 7.5 mg/kg day 3, 10 mg/kg days 6, 8, 10, 13): 83.0%
- T/C (mean survival age of treated group to untreated control group) ([3]; 5 mg/kg days 1, 9, 15, 10 mg/kg days 2, 5, 7, 13): 129%
- Solubility 10 mg/mL [4]: soluble
- Solubility 10 mg/mL [5]: soluble

Structure (SMILES): CCn1c(=Cc2sc3ccccc3[n+]2CCOCCOCCOC)sc(=C2Sc3c(ccc4ccccc34)N2C)c1=O [Compound 1-8]
- Solubility 1 mg/mL [1]: soluble
- Solubility 10 mg/mL [4]: suspension
- Solubility 10 mg/mL [5]: soluble

Structure (SMILES): CCn1c(=Cc2sc3ccccc3[n+]2CCC2OCCCO2)sc(=C2Sc3ccc4ccccc4c3N2C)c1=O [Compound 1-9, 3-(1,3-dioxane-2-ethyl)-2-{[3-ethyl-5-(3-methylnaphtho[1,2-d]thiazolin-2-ylidene)]-4-oxothiazolidin-2-ylidenemethyl}benzothiazolium=chloride]
- Solubility 1 mg/mL [1]: soluble
- Tumor Inhibition Ratio ([2]; 3 mg/kg days 1, 4, 7, 1 mg/kg days 9, 11, 13, 18): 65.6%
- T/C (mean survival age of treated group to untreated control group) ([3]; 5 mg/kg days 1, 13, 15, 10 mg/kg days 2, 5, 7, 15 mg/kg day 9): 153%
- Solubility 10 mg/mL [4]: suspension

Structure (SMILES): CCn1c(=Cc2sc3ccccc3[n+]2CCOCCOCCOC)sc(=C2Oc3ccc4ccccc4c3N2C)c1=O [Compound 1-10]
- Solubility 1 mg/mL [1]: soluble
- Solubility 10 mg/mL [4]: soluble
- Solubility 10 mg/mL [5]: soluble

Structure (SMILES): CCn1c(=Cc2sc3c4ccccc4ccc3[n+]2CCOCCOCCOC)sc(=C2Sc3ccccc3N2C)c1=O [Compound 1-11, 3-methoxyethoxyethoxyethyl-2-{[3-ethyl-5-(3-methylbenzothiazolin-2-ylidene)]-4-oxothiazolidin-2-ylidenemethyl}naphtho[2,1-d]thiazolium=chloride]
- Solubility 1 mg/mL [1]: soluble
- Tumor Inhibition Ratio ([2]; 8 mg/kg day 1, 10 mg/kg days 3, 6, 8, 10, 15, 17): 67.9%
- T/C (mean survival age of treated group to untreated control group) ([3]; 5 mg/kg days 1, 15, 10 mg/kg days 2, 5, 7, 13, 15 mg/kg day 9): 129%
- Solubility 10 mg/mL [4]: soluble
- Solubility 10 mg/mL [5]: soluble

Structure (SMILES): CCn1c(=Cc2sc3ccccc3[n+]2CCOCCOCCOC)sc(=C2Sc3ccccc3N2C)c1=O [Compound 1-12]
- Solubility 1 mg/mL [1]: soluble
- T/C (mean survival age of treated group to untreated control group) ([3]; 5 mg/kg day 1, 10 mg/kg days 2, 5, 7, 9, 13, 15): 124%
- Solubility 10 mg/mL [4]: soluble
- Solubility 10 mg/mL [5]: soluble

Structure (SMILES): CCn1c(=Cc2sc3ccccc3[n+]2CCOCCOCCOC)sc(=C2Sc3ccc(OC)cc3N2C)c1=O [Compound 1-13]
- Solubility 1 mg/mL [1]: soluble
- Tumor Inhibition Ratio ([2]; 20 mg/kg days 1, 3, 7, 11, 16, 18, 25 mg/kg day 9): 45.2%
- T/C (mean survival age of treated group to untreated control group) ([3]; 5 mg/kg day 1, 7.5 mg/kg days 2, 5, 10 mg/kg days 7, 9, 13, 15): 124%
- Solubility 10 mg/mL [4]: soluble
- Solubility 10 mg/mL [5]: soluble

Structure (SMILES): CCn1c(=Cc2sc3c4ccccc4ccc3[n+]2CCOCCOCCOC)sc(=C2SCCN2C)c1=O [Compound 1-14]
- Solubility 1 mg/mL [1]: soluble
- Solubility 10 mg/mL [4]: soluble
- Solubility 10 mg/mL [5]: soluble

Structure (SMILES): CCN1C(=O)C(=C2Sc3ccc4ccccc4c3N2C)SC1=Nc1scc[n+]1CCOCCOCCOC [Compound 1-15]
- Solubility 1 mg/mL [1]: soluble
- Tumor Inhibition Ratio ([2]; 10 mg/kg days 1, 3, 6, 8, 10, 13, 15, 20): 60.0%
- Solubility 10 mg/mL [4]: soluble
- Solubility 10 mg/mL [5]: soluble

Structure (SMILES): CCn1c(=Cc2sc3c4ccccc4ccc3[n+]2CCOCCOCCOC)sc(=CC=C2Sc3ccc4ccccc4c3N2C)c1=O [Compound 1-16]
- Solubility 1 mg/mL [1]: soluble
- Solubility 10 mg/mL [4]: suspension
- Solubility 10 mg/mL [5]: soluble

Structure (SMILES): CCn1c(=Cc2sc3ccccc3[n+]2CC)sc(=C2Sc3ccc4ccccc4c3N2C)c1=O [Compound S-1, reference compound]
- Solubility 1 mg/mL [1]: suspension
- dissolution in the above-described solubility tests [1]: not dissolved
- Solubility 10 mg/mL [4]: suspension
- Solubility 10 mg/mL [5]: suspension

Structure (SMILES): CCn1c(=Cc2sc3ccccc3[n+]2CCOC)sc(=C2Sc3ccc4ccccc4c3N2C)c1=O [Compound S-2, reference compound]
- Solubility 1 mg/mL [1]: suspension
- dissolution in the above-described solubility tests [1]: not dissolved
- Solubility 10 mg/mL [4]: suspension
- Solubility 10 mg/mL [5]: suspension

Structure (SMILES): CCn1c(=Cc2sc3ccccc3[n+]2CCOCCO)sc(=C2Sc3ccc4ccccc4c3N2C)c1=O [Compound S-3, reference compound]
- Solubility 1 mg/mL [1]: suspension
- dissolution in the above-described solubility tests [1]: not dissolved
- Solubility 10 mg/mL [4]: suspension
- Solubility 10 mg/mL [5]: suspension
